Here are results for one compound from patent US11091429B2, “Organic compounds” (Givaudan SA, priority 2012, dated 2021).

Experiment [1] in a line: Tasting in low fat mayonnaise. The protocol:
(§1) The following formulations were prepared and tasted by trained panelists.
Low fat Mayonnaise (27% Fat, 9% carbohydrates (of which 5% sugar), 1.4% salt)
(§2) Samples were prepared and evaluated by expert tasters. Tasters were asked to describe the samples focusing on authentic taste, mouthfeel, fullness, salty-ness, salivation, umami, sweetness, juiciness, richness, long lastingness and fattiness.
Calve 60% Reduced Fat Mayonnaise
Base is Calve Mayonnaise 60% reduced fat (market Product)
(§3) Samples were prepared and evaluated by expert tasters. Tasters were asked to describe the samples focusing on authentic taste, mouthfeel, fullness, salivation, salty-ness, umami, sweetness, juiciness, richness, long lastingness and fattiness.
Low fat Mayonnaise (27% Fat)

A further experiment is described as follows: Tasting in soy sauce. As to the method:
as §1
Salt level pure product between 5-40%
Salt level in application 0.3-1.0%
as §2
Test on Kikkoman Soy Sauce Low Salt
Base is Kikkoman soy sauce
as §3

The nature of the next experiment: Test on Heineken beer. Conditions: 0.5 ppm, 4% alcohol. As to the method:
In Heineken beer (Market Product) containing 4% alcohol C18:2-gaba was added at 0.5 ppm
Samples were evaluated by expert tasters. Tasters were asked to describe the samples focusing on authentic taste, alcohol impact, malt taste, hop taste, mouthfeel, fullness, salivation, sweetness, bitterness, richness, long lastingness and fattiness.
(§4) Samples were evaluated by expert tasters. Tasters were asked to describe the samples focusing on authentic taste, mouthfeel, fullness, salty-ness, salivation, umami, sweetness, juiciness, richness, long lastingness and fattiness.
Base: Heineken beer (containing 4% alcohol)

A short description of experiment [2]: Test in pear flavoured drink. To be noted: 1 ppm; water, 7% sugar (8% elsewhere in the source), 0.1% citric acid, pear flavour 0.025%. The protocol: as §2
Test in Pear Flavoured Drink:
Base: water, 7% sugar, 0.1% citric acid, proprietary pear flavour at 0.025%
as §4
Comparison in a Pear Drink
Base is water, 8% sugar, 0.1% citric acid, proprietary pear flavour at 0.025%

The nature of another experiment: Test on menthol fondant. Conditions: 2 ppm; fondant 65%, sugar syrup 34%, menthol flavour 1%. As to the method: as §2
Test on Menthol Fondant (1%1
Base is Fondant 65%, sugar syrup 34% and a proprietary menthol flavour at 1%

Experiment [3] in a line: Tasting in UHT milk, cream flavoured. To be noted: 2 ppm, cream flavour 0.03%. As to the method: The following tests were carried out on dairy products processed by fermentation, pasteurization or UHT. The products contain fat, protein and calcium.
UHT Milk Cream Flavoured, Non Sweetened and Different Fat Levels
In a UHT milk containing 0%, 1.5% and 3% fat, flavoured with a proprietary cream flavour closed at 0.03% C18:2 gaba was added at 2 ppm.
Samples were evaluated by expert tasters.
Tasters were asked to describe the samples focusing on authentic taste, mouthfeel, fullness, salivation, sweetness, juiciness, richness, long lastingness and fattiness. The results are presented below:—

A short description of experiment [4]: Tasting on air expanded base. To be noted: 3% fat, cheese seasoning. As to the method: as §1
An air expanded base (Rice, wheat, Tapioca, potato, salt, sugar, modified starch), containing 3% fat and flavored with cheese seasoning containing salt, MSG, dairy, organic acids, sugars and flavor. The following compounds were added to the base at the indicated levels and the tasting results are reported: […]

A further experiment is described as follows: Tasting in pilaf. Conditions: cooked rice with 10% of the butter flavoured at 1 ppm. The protocol: as §1
A short description of experiment [5]: Test on organic acids in a beverage. To be noted: 1 ppm, water, 7% sucrose. The protocol:
14—Testing with Beverages Containing Organic Acids from 0.01% to 7%
Test 18:2 Gaba on Organic Acids in a Beverage.
In a solution containing water, 7% sucrose by weight, and different organic acids, 18:2 gaba was added at 1 ppm. We observed taste effects on the acid perception upon addition of 18:2 gaba.
Base is water, 7% Sucrose by weight, Tartaric acid at 0.121% by weight
Base is water, 7% Sucrose by weight, Malic acid at 0.1081% by weight
Base is water, 7% Sucrose by weight, Citric acid at 0.1% by weight
Base is water, 7% Sucrose by weight, Fumaric acid at 0.0936% by weight

The structures appear in SMILES notation.

As to `CCCCC/C=C\C/C=C\CCCCCCCC(=O)NCCCC(=O)O` [C18:2-gaba], the tasting result in experiment [1] (0.5 ppm in Calve Mayonnaise 60% reduced fat) is “full, rich, creamy, more egg yolk taste”; in experiment [1] (0.5 ppm in low fat mayonnaise (27% fat)), “creamy, thick mouthfeel with a full fat impression”; in “Tasting in soy sauce” (0.5 ppm in 1% diluted salt reduced kikoman soy sauce (9% salt)) it was “stronger, more umami, long lasting, richer”; in “Tasting in soy sauce” (0.5 ppm in Kikkoman soy sauce low salt), “much more salty, sweet and long lasting”; in the experiment “Tasting in soy sauce” (0.5 ppm in pure salt reduced kikoman soy sauce (9% salt)) it was “strong in body and mouthfeel, and more salty”; in the experiment “Test on Heineken beer”, “more hoppy, more bitter, more malt and stronger alcohol impact”. In addition, the tasting result in the experiment “Test on Heineken beer” (listed as C18:2 gaba) is “more happy, more bitter, more malt and stronger alcohol impact”; in experiment [2], “long lasting, juicy and fatty skin like very authentic, like eating the fruit instead of drinking a drink”; in “Test on menthol fondant”, “increased menthol impact, stronger cooling more sweet, long lasting, fresh”; in experiment [3] (UHT milk 0% fat), “Very creamy, milky, long lasting”; in experiment [3] (UHT milk 1.5% fat), “very creamy, milky, long lasting, salivating”; in experiment [3] (UHT milk 3.0% fat) it was “very creamy, milky, long lasting, taste like whipped cream”. The tasting result was “Increased dairy, cheese” in experiment [4] (0.5 ppm on air expanded base); “Fatty full, cheesy, cheese crust, long lasting, cover base” in experiment [4] (1 ppm on air expanded base); “more mouthfeel, with a lingering creamy authentic butter taste” in the experiment “Tasting in pilaf”; “decreased sharp acidic perception, full body mouth feel, higher higher mouthwatering, and an impression of the juicy notes of citrus fruit (orange, lemon)” in [5] (citric acid 0.1% by weight); “decreased sharp acidic perception, full body mouthfeel effects, higher sweet effects, and an impression of the full notes characteristic of sweet red & vanillic flavor types (vanilla, chocolate, raspberry, cherry, especially benzaldhyde)” in [5] (fumaric acid 0.0936% by weight); “decreased sharp acidic perception, give fuller body, mouthfeel, higher mouthwatering, and an impression of the flesh and skin notes of fruit (apple)” in [5] (malic acid 0.1081% by weight). The tasting result in experiment [5] (tartaric acid 0.121% by weight) is “decreased sharp acidic perception, full body mouthfeel, higher mouthwatering, more immediate (upfront hit), and an impression of the flesh of fruit (grape, apple, banana, pear-like)”.
